Results: US7196119B2, “Development of new selective estrogen receptor modulators” (The Regents of the University of California, priority 2003, dated 2007)
Entries after “also recorded” stand apart in the source; their conditions may differ. Like-named read-outs stand apart in the source and are kept apart here.

Columns and labels:
[1] = tested on: GABAB receptor-mediated outward current in hypothalamic arcuate neurons (membrane associated estrogen receptor); assay: Whole-cell patch voltage clamp: attenuation of the baclofen-induced GABAB response (GIRK outward current) in hypothalamic slices; format: cell-based, guinea pig
[2] = target: T1, full length (ER)β (Homo sapiens, UniProt Q92731); assay: Estrogen receptor binding assay (spin column, [3H]estradiol competition)
T1 construct: to full length (ER)α or (ER)β*; purchased Pan Vera Corp, Madison, Wis., USA
T1 sequence (Q92731 whole entry): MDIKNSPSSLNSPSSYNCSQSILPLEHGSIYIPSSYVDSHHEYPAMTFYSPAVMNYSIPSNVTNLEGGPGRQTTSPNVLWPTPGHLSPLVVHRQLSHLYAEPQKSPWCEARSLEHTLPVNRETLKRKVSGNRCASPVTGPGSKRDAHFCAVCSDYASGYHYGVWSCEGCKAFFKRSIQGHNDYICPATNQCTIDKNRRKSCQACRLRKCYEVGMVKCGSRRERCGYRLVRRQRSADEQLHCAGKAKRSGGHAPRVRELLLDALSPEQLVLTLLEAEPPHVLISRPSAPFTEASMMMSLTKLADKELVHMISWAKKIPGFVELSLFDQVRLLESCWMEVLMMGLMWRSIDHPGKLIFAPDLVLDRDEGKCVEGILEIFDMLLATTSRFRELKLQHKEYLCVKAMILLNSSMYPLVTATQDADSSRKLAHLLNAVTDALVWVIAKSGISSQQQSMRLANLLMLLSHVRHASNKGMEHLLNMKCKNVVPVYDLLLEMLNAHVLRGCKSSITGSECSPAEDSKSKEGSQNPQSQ

[3] = target: T2, full length (ER)α (Homo sapiens, UniProt P03372); assay: as above
T2 construct: purchased Pan Vera Corp, Madison, Wis., USA
T2 sequence (P03372 1-595): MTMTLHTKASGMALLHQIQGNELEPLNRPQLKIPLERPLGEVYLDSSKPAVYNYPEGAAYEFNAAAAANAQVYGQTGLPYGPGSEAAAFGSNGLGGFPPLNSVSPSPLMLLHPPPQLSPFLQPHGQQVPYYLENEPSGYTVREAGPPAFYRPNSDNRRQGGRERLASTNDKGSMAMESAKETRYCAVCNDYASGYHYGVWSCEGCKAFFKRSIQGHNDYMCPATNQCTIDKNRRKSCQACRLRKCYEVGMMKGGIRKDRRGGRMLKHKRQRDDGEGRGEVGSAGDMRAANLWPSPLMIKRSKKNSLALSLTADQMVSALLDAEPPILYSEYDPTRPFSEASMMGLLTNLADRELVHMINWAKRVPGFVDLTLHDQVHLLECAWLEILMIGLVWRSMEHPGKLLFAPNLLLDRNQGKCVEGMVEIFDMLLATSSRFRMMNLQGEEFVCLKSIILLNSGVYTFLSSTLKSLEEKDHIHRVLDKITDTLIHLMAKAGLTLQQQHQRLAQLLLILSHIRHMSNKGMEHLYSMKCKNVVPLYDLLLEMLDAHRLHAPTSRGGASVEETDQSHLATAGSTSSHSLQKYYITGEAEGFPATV

[4] = tested on: uteri; assay: Uterotropic action (uterine size/weight) in ovariectomized mice; format: in vivo, C57BL/6 mice
Method: Wild-type C57BL/6 mice in these studies were obtained from Jackson laboratories. All animals were maintained under controlled temperature (25° C.) and photoperiod conditions (14-h light, 10-h dark; lights on between 0700 and 2100) with food and water ad libitum. Adult mice were ovariectomized under isoflurane anesthesia, and allowed to recover for 1 week. […] The uteri were collected, weighed and fixed in 4% paraformaldehyde for later histological analysis (data not shown).

4-hydroxytamoxifen
block of the baclofen response [1]: 25% | Relative binding affinity (ER)β [2]: 43% | Relative binding affinity (ER)α [3]: 36%

C[C@]12CC[C@@H]3c4ccc(O)cc4CC[C@H]3[C@@H]1CC[C@H]2O [17α-estradiol]
effect on the baclofen (GABAB) response [1]: no effect

C[C@]12CC[C@@H]3c4ccc(O)cc4CC[C@H]3[C@@H]1CC[C@@H]2O [17β-estradiol]
R2/R1 (second over first baclofen response) [1]: 58.6±3.4% | decrease in the response to a second application of baclofen [1]: 41% | effect on the baclofen (GABAB) response [1]: no effect

CN(C)CCCn1cc(C2=C(c3c[nH]c4ccccc34)C(=O)NC2=O)c2ccccc21.Cl [BIS, bisindolylmaleimide I hydrochloride]
effect on the 17β-estradiol-induced suppression of the GABAB response [1]: nearly eliminated the effects of 17β-estradiol

CC/C(=C(\C(=O)Nc1ccc(OCCN(C)C)cc1)c1ccc(O)cc1)c1ccccc1 [Compound 8, (E,Z)-2-(4-hydroxyphenyl)-3-phenylpent-2-enoic acid [4-(2-dimethylaminoethoxy)-phenyl]amide]
effect on the baclofen (GABAB) response ([1]; 10 nM, applied alone): as efficacious as 100 nM 17β-estradiol; also recorded: stronger activator of this rapid 17β-estradiol response than 17β-estradiol | effect on the baclofen (GABAB) response ([1]; 10 nM, applied alone, listed as compound 8): inhibited the baclofen response | uterotropic actions ([4]; 2 or 5 μg daily for 2 days): no uterotropic actions | binding affinity for nuclear (ER)α compared to that of 17β-estradiol ([3]; fold reduction versus 17β-estradiol): approximately one million-fold reduced binding affinity | Relative binding affinity (ER)α ([3]; percentage of the potency of 17β-estradiol (IC50 estradiol / IC50 ligand x 100)): 4.3 × 10^−6%

Cl.Cl.O=S(=O)(NCCNC/C=C/c1ccc(Br)cc1)c1cccc2cnccc12 [Compound H89]
effect on the 17β-estradiol-induced suppression of the GABAB response ([1]; 10 μM, with 17β-estradiol): blocked

N#CC(=C(/N)Sc1ccccc1N)/C(C#N)=C(/N)Sc1ccccc1N [Compound U0126]
effect on the 17β-estradiol-induced suppression of the GABAB response ([1]; 5 μM, with 17β-estradiol): did not affect 17β-estradiol inhibition of baclofen responses

COc1ccc2c(c1)CC[C@@H]1[C@@H]2CC[C@]2(C)[C@@H](NCCCCCCN3C(=O)C=CC3=O)CC[C@@H]12 [Compound U73122]
effect on the 17β-estradiol-induced suppression of the GABAB response ([1]; 10 μM, with 17β-estradiol): blocked

COc1ccc2c(c1)CC[C@@H]1[C@@H]2CC[C@]2(C)[C@@H](NCCCCCCN3C(=O)CCC3=O)CC[C@@H]12 [Compound U73343]
effect on the 17β-estradiol-induced suppression of the GABAB response ([1]; 10 μM, with 17β-estradiol): no effect

CC/C(=C(\c1ccccc1)c1ccc(/C=C/C(=O)O)cc1)c1ccccc1 [GW-5638]
effect on the baclofen (GABAB) response ([1]; 1 μM, applied alone): significantly more efficacious than 17β-estradiol

Cn1c2ccccc2c2c3c(c4c5ccccc5n(CCC#N)c4c21)CNC3=O [Gö6976]
effect on the 17β-estradiol-induced suppression of the GABAB response ([1]; test concentration not given, with 17β-estradiol): without effect

C[C@]12CC[C@@H]3c4ccc(O)cc4C[C@@H](CCCCCCCCC[S+]([O-])CCCC(F)(F)C(F)(F)F)[C@H]3[C@@H]1CC[C@@H]2O (stereo partly shown) [ICI 182, 780]
effect on the baclofen (GABAB) response ([1]; 1 μM, applied alone): no effect | effect on the 17β-estradiol-induced suppression of the GABAB response ([1]; 1 μM, with 17β-estradiol): blocked

COc1cccc(-c2cc(=O)c3ccccc3o2)c1N [PD98059]
effect on the 17β-estradiol-induced suppression of the GABAB response ([1]; 10 μM, with 17β-estradiol): did not affect 17β-estradiol inhibition of baclofen responses | R2/R1 (second over first baclofen response) ([1]; PD98059 (10 μM, in the pipette) + 17β-estradiol, baclofen 5 μM): 66.1±11.8%

O=C(c1ccc(OCCN2CCCCC2)cc1)c1c(-c2ccc(O)cc2)sc2cc(O)ccc12 [Raloxifene, raloxifene]
effect on the baclofen (GABAB) response [1]: completely mimicked the actions of 17β-estradiol

Nc1ncnc2c1ncn2[C@@H]1O[C@@H]2COP(O)(=S)O[C@H]2[C@H]1O (stereo partly shown) [Rp-cAMP]
effect on the 17β-estradiol-induced suppression of the GABAB response ([1]; 200 μM, dialysis, with 17β-estradiol): abolished

CC/C(=C(\c1ccccc1)c1ccc(OCCN(C)C)cc1)c1ccccc1 [Tamoxifen, tamoxifen]
R2/R1 (second over first baclofen response) [1]: 60.4±6.6% | effect on the 17β-estradiol-induced suppression of the GABAB response [1]: did not attenuate the effects of 17β-estradiol | effect on the baclofen (GABAB) response [1]: inactive

C[C@]12CC[C@@H]3c4ccc(OC(=O)c5ccccc5)cc4CC[C@H]3[C@@H]1CC[C@@H]2O [estradiol benzoate]
uterine size ([4]; 1 μg daily for 2 days, compared with oil vehicle): noticeable increase in uterine size

CC(=O)c1c(O)c(C)c(O)c(Cc2c(O)c3c(c(C(=O)/C=C/c4ccccc4)c2O)OC(C)(C)C=C3)c1O [rottlerin]
effect on the 17β-estradiol-induced suppression of the GABAB response [1]: completely blocked

Ac-LGLNLKEYNLV-OH [Gq peptide]
effect on the 17β-estradiol-induced suppression of the GABAB response [1]: significantly blocked
